36 molecules from patent US8987258B2 (priority 2008, dated 2015) can be followed below.

SMILES strings stand for the structures.

The experiment has as its target T1, SIRT1 (Homo sapiens, UniProt Q96EB6).
T1 sequence (Q96EB6 1-747): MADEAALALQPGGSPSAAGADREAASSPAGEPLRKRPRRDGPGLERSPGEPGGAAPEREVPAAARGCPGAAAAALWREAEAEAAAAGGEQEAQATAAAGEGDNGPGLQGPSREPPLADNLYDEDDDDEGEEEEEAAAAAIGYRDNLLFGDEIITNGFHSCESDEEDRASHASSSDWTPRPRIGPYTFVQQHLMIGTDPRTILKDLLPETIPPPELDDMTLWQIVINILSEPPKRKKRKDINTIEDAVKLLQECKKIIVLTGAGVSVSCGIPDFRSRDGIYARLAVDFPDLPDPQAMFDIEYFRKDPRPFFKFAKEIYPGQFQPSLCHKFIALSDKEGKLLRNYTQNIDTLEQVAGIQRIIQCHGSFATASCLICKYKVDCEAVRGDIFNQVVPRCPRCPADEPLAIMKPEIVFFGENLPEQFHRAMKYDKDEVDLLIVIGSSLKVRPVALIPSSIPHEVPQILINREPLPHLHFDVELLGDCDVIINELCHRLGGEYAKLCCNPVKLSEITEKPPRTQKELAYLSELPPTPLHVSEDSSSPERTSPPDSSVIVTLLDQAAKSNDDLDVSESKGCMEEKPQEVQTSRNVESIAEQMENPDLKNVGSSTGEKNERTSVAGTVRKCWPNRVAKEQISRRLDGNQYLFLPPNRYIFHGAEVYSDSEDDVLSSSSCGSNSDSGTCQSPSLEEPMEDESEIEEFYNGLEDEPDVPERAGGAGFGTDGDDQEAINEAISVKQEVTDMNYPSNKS
The experiment can be described thus: Mass spectrometry based SIRT1 deacetylase activation assay. The format is biochemical. Conditions: for Emax: 25 min, mass spectrometry assay, read-out: % Fold Act. (percent maximum fold activation); for EC1.5 μM: 0.5 μM peptide substrate, 120 μM βNAD+, 10 nM SIRT1, 25 min, 25° C. The text has this:
A mass spectrometry based assay was used to identify modulators of SIRT1 activity. The mass spectrometry based assay utilizes a peptide having 20 amino acid residues as follows: Ac-EE-K(biotin)-GQSTSSHSK(Ac)NleSTEG-K(5TMR)-EE-NH2 (SEQ ID NO: 1) wherein K(Ac) is an acetylated lysine residue and Nle is a norleucine. The peptide is labeled with the fluorophore 5TMR (excitation 540 nm/emission 580 nm) at the C-terminus. The sequence of the peptide substrate is based on p53 with several modifications. In addition, the methionine residue naturally present in the sequence was replaced with the norleucine because the methionine may be susceptible to oxidation during synthesis and purification.
The mass spectrometry assay is conducted as follows: 0.5 μM peptide substrate and 120 μM βNAD^+ is incubated with 10 nM SIRT1 for 25 minutes at 25° C. in a reaction buffer (50 mM Tris-acetate pH 8, 137 mM NaCl, 2.7 mM KCl, 1 mM MgCl2, 5 mM DTT, 0.05% BSA). Test compounds may be added to the reaction as described above. […] After the 25 minute incubation with SIRT1, 10 μL of 10% formic acid is added to stop the reaction. Reactions are sealed and frozen for later mass spec analysis. Determination of the mass of the substrate peptide allows for precise determination of the degree of acetylation (i.e. starting material) as compared to deacetylated peptide (product).
A control for inhibition of sirtuin activity is conducted by adding 1 μL of 500 mM nicotinamide as a negative control at the start of the reaction (e.g., permits determination of maximum sirtuin inhibition). A control for activation of sirtuin activity is conducted using 10 nM of sirtuin protein, with 1 μL of DMSO in place of compound, to determine the amount of deacetylation of the substrate at a given timepoint within the linear range of the assay. This timepoint is the same as that used for test compounds and, within the linear range, the endpoint represents a change in velocity.
For the above assay, SIRT1 protein was expressed and purified as follows. […] The protein was expressed by induction with 1 mM IPTG as an N-terminal His-tag fusion protein at 18° C. overnight and harvested at 30,000×g. Cells were lysed with lysozyme in lysis buffer (50 mM Tris-HCl, 2 mM Tris[2-carboxyethyl]phosphine (TCEP), 10 μM ZnCl2, 200 mM NaCl) and further treated with sonication for 10 min for complete lysis. The protein was purified over a Ni-NTA column (Amersham) and fractions containing pure protein were pooled, concentrated and run over a sizing column (Sephadex S200 26/60 global). The peak containing soluble protein was collected and run on an Ion-exchange column (MonoQ). Gradient elution (200 mM-500 mM NaCl) yielded pure protein. This protein was concentrated and dialyzed against dialysis buffer (20 mM Tris-HCl, 2 mM TCEP) overnight. The protein was aliquoted and frozen at −80° C. until further use.

In the case of `Cc1cnc(NC(=O)c2cccc3c(=O)cc(-c4ccccc4Br)oc23)s1` [Compound 236], the Emax is below 200%.

`Cc1cnc(NC(=O)c2cccc3c(=O)cc(-c4cccc(Br)c4)oc23)s1` [Compound 237]: the Emax is below 200%. Take `Cc1cnc(NC(=O)c2cccc3c(=O)cc(-c4ccccn4)oc23)s1` [Compound 238]: the “EC1.5 μM” value was “C (EC1.5>25 μM)” and the Emax is below 200%. Taken in the same sequence, the figures for `Cc1cnc(NC(=O)c2cccc3c(=O)cc(-c4cccnc4)oc23)s1` [Compound 239] were “C (EC1.5>25 μM)” and below 200%. As to `O=C(Nc1cccc2c(=O)cc(-c3ccccc3N3CCOCC3)oc12)c1cscn1` [Compound 240], the “EC1.5 μM” value is reported as “B (EC1.5 1-25 μM)” and the Emax was above 200%. In the same order, the values of `CS(=O)(=O)c1ccccc1-c1cc(=O)c2cccc(NC(=O)c3ccccn3)c2o1` [Compound 241] are “B (EC1.5 1-25 μM)” and above 200%.

On to `CS(=O)(=O)c1cccc(-c2cc(=O)c3cccc(NC(=O)c4cccnc4)c3o2)c1` [Compound 242], for which the “EC1.5 μM” value was “C (EC1.5>25 μM)” and the Emax was below 200%. `O=C(Nc1cccc(CN2CCCC2)n1)c1cccc2c(=O)cc(-c3cccc(C(F)(F)F)c3)oc12` [Compound 243, 4-oxo-N-(6-(pyrrolidin-1-ylmethyl)pyridin-2-yl)-2-(3-(trifluoromethyl)phenyl)-4H-chromene-8-carboxamide]: the “EC1.5 μM” value is “B (EC1.5 1-25 μM)” and the Emax is above 200%. In the same order, the values of `O=C(Nc1cccc2c(=O)cc(-c3cccc(C(F)(F)F)c3)oc12)c1cccc(OC[C@@H](O)CO)n1` [Compound 244] are “B (EC1.5 1-25 μM)” and above 200%.

Regarding `O=C(Nc1cccc2c(=O)cc(-c3cccc(C(F)(F)F)c3)oc12)c1ccnc(OC[C@@H](O)CO)c1` [Compound 245], the “EC1.5 μM” value is listed as “C (EC1.5>25 μM)” and the Emax was below 200%. Taken in the same sequence, the figures for `O=C(Nc1cccc2c(=O)cc(-c3cccc(C(F)(F)F)c3)oc12)c1cccnc1OC[C@@H](O)CO` [Compound 246] were “B (EC1.5 1-25 μM)” and below 200%. For the molecule `O=C(Nc1cccc2c(=O)cc(-c3cccc(C(F)(F)F)c3)oc12)c1ccc(OC[C@@H](O)CO)nc1` [Compound 247], the “EC1.5 μM” value is reported as “C (EC1.5>25 μM)” and the Emax was below 200%.

With `Cc1cnc(NC(=O)c2cccc3c(=O)cc(-c4ccncc4)oc23)s1` [Compound 248, N-(5-methylthiazol-2-yl)-4-oxo-2-(pyridin-4-yl)-4H-chromene-8-carboxamide], the “EC1.5 μM” value is on record as “C (EC1.5>25 μM)” and the Emax is below 200%.

On to `CS(=O)(=O)c1ccc(-c2cc(=O)c3cccc(NC(=O)c4ccccn4)c3o2)cc1` [Compound 249], for which the “EC1.5 μM” value is “C (EC1.5>25 μM)” and the Emax was below 200%. Taken in the same sequence, the figures for `Cn1ccnc1C(=O)Nc1cccc2c(=O)cc(-c3ccccc3C(F)(F)F)oc12` [Compound 250] were “A (EC1-5<1.0)” and above 200%.

Regarding `O=C(Nc1cccc2c(=O)cc(-c3ccccc3C(F)(F)F)oc12)c1ccccn1` [Compound 251], the “EC1.5 μM” value is “A (EC1-5<1.0)” and the Emax was above 200%. In the same order, the values of `O=C(Nc1cccc2c(=O)cc(-c3ccccc3C(F)(F)F)oc12)c1ncccn1` [Compound 252] are “A (EC1-5<1.0)” and above 200%. Taken in the same sequence, the figures for `O=C(Nc1cccc2c(=O)cc(-c3ccccc3C(F)(F)F)oc12)c1ccncn1` [Compound 253] were “A (EC1-5<1.0)” and above 200%. In the same order, the values of `COc1ccccc1-c1cc(=O)c2cccc(NC(=O)c3cnccn3)c2o1` [Compound 254] are “C (EC1.5>25 μM)” and below 200%. For the molecule `COc1ccccc1-c1cc(=O)c2cccc(NC(=O)c3cscn3)c2o1` [Compound 255], the “EC1.5 μM” value was “C (EC1.5>25 μM)” and the Emax is below 200%.

Turning to `Cn1cnc(C(=O)Nc2cccc3c(=O)cc(-c4ccccc4C(F)(F)F)oc23)c1` [Compound 256], the “EC1.5 μM” value is reported as “A (EC1-5<1.0)” and the Emax is above 200%.

Regarding `Cn1nccc1C(=O)Nc1cccc2c(=O)cc(-c3ccccc3C(F)(F)F)oc12` [Compound 257], the “EC1.5 μM” value was “A (EC1-5<1.0)” and the Emax was above 200%.

With `O=C(Nc1cccc2c(=O)cc(-c3ccccc3C(F)(F)F)oc12)c1ccncc1` [Compound 258], the “EC1.5 μM” value is on record as “B (EC1.5 1-25 μM)” and the Emax is above 200%. For `Cn1ccc(C(=O)Nc2cccc3c(=O)cc(-c4ccccc4C(F)(F)F)oc23)n1` [Compound 259], the “EC1.5 μM” value is reported as “B (EC1.5 1-25 μM)” and the Emax was above 200%.

For the molecule `O=C(Nc1cccc2c(=O)cc(-c3ccccc3C(F)(F)F)oc12)c1cncnc1` [Compound 260], the “EC1.5 μM” value is “C (EC1.5>25 μM)” and the Emax was below 200%.

On to `O=C(Nc1cccc2c(=O)cc(-c3ccccc3C(F)(F)F)oc12)c1cnccn1` [Compound 261], for which the “EC1.5 μM” value is on record as “A (EC1-5<1.0)” and the Emax is above 200%.

As for `O=C(Nc1cccc2c(=O)cc(-c3ccccc3C(F)(F)F)oc12)c1cccnc1` [Compound 262], the “EC1.5 μM” value is given as “B (EC1.5 1-25 μM)” and the Emax was below 200%. Taken in the same sequence, the figures for `O=C(Nc1cccc2c(=O)cc(-c3ccccc3OC(F)F)oc12)c1cnccn1` [Compound 263] were “C (EC1.5>25 μM)” and below 200%. In the same order, the values of `O=C(Nc1cccc2c(=O)cc(-c3ccccc3OC(F)F)oc12)c1cscn1` [Compound 264] are “C (EC1.5>25 μM)” and below 200%. As to `CS(=O)(=O)c1ccccc1-c1cc(=O)c2cccc(NC(=O)c3cnccn3)c2o1` [Compound 265], the “EC1.5 μM” value was “C (EC1.5>25 μM)” and the Emax was below 200%. In the same order, the values of `CS(=O)(=O)c1ccccc1-c1cc(=O)c2cccc(NC(=O)c3cscn3)c2o1` [Compound 266] are “B (EC1.5 1-25 μM)” and below 200%.

As for `O=C(Nc1cccc2c(=O)cc(-c3ccccc3C(F)(F)F)oc12)c1cncs1` [Compound 267], the “EC1.5 μM” value was “B (EC1.5 1-25 μM)” and the Emax is above 200%. In the same order, the values of `Cc1ncoc1C(=O)Nc1cccc2c(=O)cc(-c3ccccc3C(F)(F)F)oc12` [Compound 268] are “A (EC1-5<1.0)” and above 200%.

Consider `Cn1cc(C(=O)Nc2cccc3c(=O)cc(-c4ccccc4C(F)(F)F)oc23)cn1` [Compound 269], for which the “EC1.5 μM” value is “B (EC1.5 1-25 μM)” and the Emax is above 200%.

With `Cc1cnc(NC(=O)c2cccc3c(=O)cc(-c4ccccc4Cl)oc23)s1` [Compound 270], the “EC1.5 μM” value is “C (EC1.5>25 μM)” and the Emax was below 200%.

As to `Cc1cnc(NC(=O)c2cccc3c(=O)cc(-c4ccccc4F)oc23)s1` [Compound 271], the “EC1.5 μM” value is “C (EC1.5>25 μM)” and the Emax is below 200%.
